Source: patent publication US4769250A, “Antracycline antineoplastic agents encapsulated in phospholipid vesicle particles and methods for using same for tumor therapy” (priority 1987, dated 1988)

How the values were obtained:
[1] = children highly susceptible (Mosijezuk et al.); cited from earlier work
[2] = binding to distearoyl phosphatidylglycerol; read-out: binding constant; cited from earlier work
[3] = test system: P-1798 solid lymphosarcoma; assay: single dose chemotherapeutic efficacy, intradermal P-1798 solid lymphosarcoma; format: in vivo, mice; conditions: 20 mg/kg single dose
Experimental: In the first investigation, groups of 10 mice received free daunorubicin or daunorubicin-vesicles in 20 mg/kg single doses at three or four days following tumor implantation. Tumors were measured using calipers and the survival over time of treated and control mice was recorded. Controls consisted of injections of a 5% dextrose in water solution at 2 ml/20 gm doses.
Representative results of these investigations are shown in FIG. 5 for treatment commencing on day 3 after tumor implantation. Typically, with tumor metastasis, mice with tumors die within 14-17 days. […] The median life span of mice injected with daunorubicin-vesicles was 21 days.

[4] = toxicity determined by survival in tumor-bearing mice; format: in vivo
[5] = biological target: DNA; conditions: binding to DNA; read-out: affinity for binding to DNA in a cell (converted); cited from earlier work

SMILES | cardiotoxicity [1] | Kd [2] [µM] | inhibition of tumor growth vs untreated controls [3] | toxicity induced deaths by dose ([4]; 10, 20 and 30 mg/kg) | mortality ([4]; mouse, in vivo, 30 mg/kg, read-out: toxicity induced deaths) [%] | Kd [5] [µM]
COc1cccc2c1C(=O)c1c(O)c3c(c(O)c1C2=O)C[C@@](O)(C(=O)CO)C[C@@H]3O[C@H]1C[C@H](N)[C@H](O)[C@H](C)O1 [doxorubicin] | congestive heart failure |  |  |  |  | 
COc1cccc2c1C(=O)c1c(O)c3c(c(O)c1C2=O)C[C@@](O)(C(C)=O)C[C@@H]3O[C@H]1C[C@H](N)[C@H](O)[C@H](C)O1 [daunorubicin] |  | ~10 | significant inhibition of tumor growth | toxicity induced deaths occurred only for the high dose unencapsulated daunorubicin (30 mg/kg) | 100 | ~0.5
